One test deals with purified secondary alcohol dehydrogenase (SADH) from Pseudomonas sp. ATCC 21439. Nature of the test: Effect of metal-chelating agents and thio reagents on purified SADH. The format is biochemical.
Conditions: not given
On the procedure: Secondary alcohol dehydrogenase (SADH) from an obligate methanol utilizer, Pseudomonas sp. ATCC 21439 was purified as follows. […] 0.05 M sodium phosphate buffer, pH 7.0 with 0.5 mM dithiothretol (buffer A) and were disrupted sonically (5×1 min.). The crude extract was separated by centrifugation. The crude extract was heat-treated at 50° C. in a water bath for 10 minutes. The resulting precipitate was removed by centrifugation. To the supernatant solution, 25 ml of protamine sulfate solution (2% solution in 0.1 M Tris base) was added dropwise with continuous stirring. After standing for 30 minutes, the extract was centrifuged. The supernatant solution was fractionated with solid ammonium sulfate. […] This DEAE-cellulose eluate was concentrated by ammonium sulfate fractionation. Material precipitating between 30 and 50% ammonium sulfate saturation was collected by centrifugation and dialyzed overnight against A. This fraction was further washed and filtered through an Amicon unit with XM 50 membrane. The concentrated fraction (6 ml) inside the Amicon unit was applied to an Affi-Gel Blue column (0.8 cm×18 cm) which had been equilibrated with buffer A for affinity chromatography. The column was washed overnight with buffer A (0.18 ml./min.) and then was eluted with buffer A containing 5 mM NAD. Each 1 ml. fraction was collected.
The purified secondary alcohol dehydrogenase enzyme (SADH) may be used directly for converting C3 -C6 secondary alcohols to the corresponding methyl ketones by the procedures described above; however, a source of NAD^+ must be added to the reaction medium. One can determine the NAD-linked secondary alcohol dehydrogenase activity with a fluorescence spectrophotometer (Perkin Elmer, Model MPF 44A) by following the formation of reduced NAD (Ex 340 nm, Em 460 nm). The assay system (3 ml.) will typically contain: sodium phosphate buffer pH 7.0, 150 μmol; NAD 1.0 μmol; a given amount of enzyme preparation; and 20 μmol secondary alcohol. The reaction is started by the addition of secondary alcohol. One unit of SADH enzyme activity represents the reduction of one nmole NAD per minute.
The effect of metal-chelating agents and chioreagents on the activity of the purified SADH enzyme were studied. […] The possibility of ethanol or n-propanol as an inhibitor was studied.
On to `O=C(O)CN(CCN(CC(=O)O)CC(=O)O)CC(=O)O` [EDTA], for which the “% inhibition of SADH activity” value worked out at 63%.

As to `O=C(O)CI` [iodoacetic acid], the “% inhibition of SADH activity” value stood at 0%. On to `CCCO` [propan-1-ol], for which the “inhibition of SADH activity” value was “did not inhibit”.

The same test, now with this note: final concentration of 1 mM; measured spectrofluorometrically.
As for `O=C(O)c1cc(SSc2ccc([N+](=O)[O-])c(C(=O)O)c2)ccc1[N+](=O)[O-]` [5,5'-dithiobis(2-nitrobenzoic acid)], the “% inhibition of SADH activity” value was 100%.

Turning to `[Co+2]` [Co^++], the “% inhibition of SADH activity” value stood at 0%. As for `[Mg+2]` [Mg^++], the “% inhibition of SADH activity” value is 0%.

Take `[Mn+2]` [Mn^++]: the “% inhibition of SADH activity” value came to 0%.

As for `CCN1C(=O)C=CC1=O` [N-ethylmalemide], the “% inhibition of SADH activity” value is listed as 6%. On to `[N-]=[N+]=[N-]` [Sodium azide], for which the “% inhibition of SADH activity” value stood at 10%. Still for that read-out and setting: the result for `[Zn+2]` [Zn^++] reads 0%. Still for that read-out and setting: the same measure for `[Cu+2]` [cupric]: 25%; for `[Fe+3]` [ferric]: 35%. In the case of `[Fe+2]` [ferrous], the “% inhibition of SADH activity” value was determined as 50%.

For the compound `[Ni+2]` [nickel], the “% inhibition of SADH activity” value was 20%.

A further test concerns Methylobacter vinelandii (CRL M5Y) NRRL B-11,218. Nature of the test: Oxidation by washed cell suspensions of methane-grown cells. The format is cell-based. As to conditions: methane-grown washed cells. The protocol:
(§1) The pH of the nutrient medium was adjusted to 7.0 by the addition of acid or base and 50 ml samples of the nutrient medium were charged into a plurality of 300 ml shaker flasks. The shaker flasks were inoculated with an inoculating loop of cells from an agar plate containing homogeneous colonies of the microorganisms on the plate (the purity of the isolates was confirmed by microscopic examination. The isolates had been maintained on agar plates under an atmosphere of methane and air having a 1:1 v/v gas ratio which had been transferred evey two weeks. The gaseous phase of the inoculated flasks was then replaced with a gas mixture comprised of methane and air having a ratio of 1:1 on a v/v basis. The inoculated flasks were sealed air tight and were incubated on a rotary shaker of orbital radius 2.5 cm at 250 rpm and at 30° C. for two days until turbidity in the medium had developed.
(§2) The cells were harvested by centrifugation at 10,000×g. at 4° C. for 30 minutes. The cell pellet was washed twice with a 0.15 M phosphate buffer at a pH of 7.0 (containing 0.002 M MgCl2). The washed cells were then suspended in a 0.15 M phosphate buffer at pH 7.0.
(§3) A 0.5 ml sample of each washed cell suspension (2 mg cells) was put into 10 ml vials at 4° C. which were sealed with a rubber cap. The gaseous phase of the vials was removed with vacuum and then was replaced with a gas mixture of the oxidative substrate (e.g., methane) and oxygen at a 1:1 v/v ratio. The vials were then incubated at 30 ° C. on a rotary shaker at 300 rpm. Samples of product (3 μl) were withdrawn periodically with a microsyringe and the products were analyzed by gas chromatography (ionization flame detector column).
(§4) The newly discovered and isolated microorganism strains of the present invention were each grown aerobically in the presence of methane in the manner described above. The methane-grown microbial cells were then washed, recovered and put to use in oxidizing an oxidative substrate by the procedure described above except in the case of a liquid substrate 10 μl of the substrate were used.
In the case of `C1CCCCC1` [Cyclohexane], the “conversion rate cyclohexane to cyclohexanol” value worked out at 1.5 μ moles/2 hr./mg. protein. Regarding `c1ccccc1` [benzene], the “oxidative conversion” value is recorded as “no oxidative conversion was detected”. Regarding `Cc1ccccc1` [toluene], the “oxidative conversion” value was “no oxidative conversion was detected”.

For another test, the system named is Methylococcus capsulatus (CRL M1) NRRL B-11,219. The description is as above. The format is cell-based. As to conditions: methane-grown cell-suspension; pH 7.0; 3° C. On the procedure: as §1, §2, §3, §4
As to `CC` [Ethane], the “Conversion Rate to Ethanol” value was 2.0 μmoles/hr./mg./protein.

The next test has as its system Methylosinus trichosporium OB3b (NRRL B-11,196). Nature of the test: Oxidation by cell suspensions of methane-grown cells. The format is cell-based. The following applies: methane-grown cell-suspension; pH 7.0; 3° C.
Consider `CC` [Ethane], for which the “Conversion Rate to Ethanol” value is on record as 1.3 μmoles/hr./mg./protein.

Another test addresses T1, cell fractions of Methylosinus sp. (CRL-15, NRRL B-11,202) (Methylosinus trichosporium, UniProt Q50541+Q9KX50+Q9KX51).
T1 sequence (Q9KX50 40-431): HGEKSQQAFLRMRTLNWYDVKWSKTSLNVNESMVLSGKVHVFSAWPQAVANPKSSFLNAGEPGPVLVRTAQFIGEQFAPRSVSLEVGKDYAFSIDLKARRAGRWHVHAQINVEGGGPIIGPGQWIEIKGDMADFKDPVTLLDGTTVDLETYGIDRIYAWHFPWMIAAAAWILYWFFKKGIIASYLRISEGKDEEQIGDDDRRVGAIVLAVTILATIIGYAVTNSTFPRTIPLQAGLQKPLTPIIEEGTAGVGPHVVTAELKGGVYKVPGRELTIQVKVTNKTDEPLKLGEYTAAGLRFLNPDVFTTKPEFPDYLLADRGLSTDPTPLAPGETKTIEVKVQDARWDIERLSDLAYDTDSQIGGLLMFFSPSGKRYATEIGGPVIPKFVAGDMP
T1 sequence (Q50541 1-252): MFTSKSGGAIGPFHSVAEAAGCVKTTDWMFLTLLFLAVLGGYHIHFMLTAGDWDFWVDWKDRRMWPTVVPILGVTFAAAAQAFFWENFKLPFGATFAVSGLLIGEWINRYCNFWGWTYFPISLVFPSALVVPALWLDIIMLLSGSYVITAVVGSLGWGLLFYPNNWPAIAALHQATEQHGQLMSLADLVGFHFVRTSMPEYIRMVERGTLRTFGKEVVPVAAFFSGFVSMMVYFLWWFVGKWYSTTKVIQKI
T1 sequence (Q9KX51 1-256): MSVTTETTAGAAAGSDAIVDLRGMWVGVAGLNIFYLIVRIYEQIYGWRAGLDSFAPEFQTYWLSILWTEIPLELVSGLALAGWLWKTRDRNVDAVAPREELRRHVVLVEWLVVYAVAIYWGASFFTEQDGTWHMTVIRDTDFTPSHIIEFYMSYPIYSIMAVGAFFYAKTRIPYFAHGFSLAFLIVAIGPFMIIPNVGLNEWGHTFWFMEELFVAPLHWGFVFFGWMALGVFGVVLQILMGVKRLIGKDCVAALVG
Nature of the test: Oxidation by cell fractions P(40), P(80), S(80). The format is biochemical. As to conditions: P(40) particulate fraction; alkene to epoxide, alkane to alcohol; 30° C. The protocol: Cells were washed twice with 25 mM potassium phosphate buffer, pH 7.0 containing 5 mM MgCl2. Cells were suspended in the same buffer. The cell suspensions at 4° C. were disintegrated by a single passage through a French Pressure cell (15,000 lb./in.^2) and centrifuged at 5000×g. for 15 min. to remove unbroken bacteria. The supernatant solution (crude extract) was then centrifuged at 40,000×g. for 30 min., yielding particulate P(40) and soluble S(40) fractions. The S(40) fraction was subsequently centrifuged at 80,000×g. for 60 min., yielding particulate P(80) and soluble S(80) fractions. The particulate fractions [P(40) and P(80)] were suspended in 25 mM potassium phosphate buffer, pH 7.0, containing 5 mM MgCl2 and homogenized at 4° C.
The oxidation of methane and propylene by particulate [(P)40 and (P)80] fractions and soluble [S(80)] fraction was measured at 30° C. by estimating the production of methanol and propylene oxide, respectively. The reaction mixtures contained in […]: 150 mM potassium phosphate buffer, pH 7.0 containing 5 mM MgCl2 b, 0.6 ml; 10μ moles NADH, and cellular fraction.
Reaction mixtures were contained in 10 ml vials at 4° C. Vials were sealed with rubber caps. The gaseous phase in the vials was removed using vacuum and then was replaced with a gas mixture of methane or propylene and oxygen at a 1:1, v/v ratio. Oxidation of other gaseous n-alkanes and n-alkanes was examined as described above. For liquid substrates, 10 μl of substrate was used directly.
The products of epoxidation of n-alkenes and hydroxylation of n-alkanes were assayed by flame ionization gas chromatography using a stainless steel column (12'×1/8") packed with 10% Carbowax 20 M on 80/100 Chromosorb W and Porapak Q column. The column temperature was maintained isothermally at 120° C. The carrier gas flow rate was 30 ml/min. of helium. The various products were identified by retention time comparisons and co-chromatography with authentic standards.
Specific activities were expressed as μ moles of products formed per hour per mg. protein. Concentrations of protein in various fractions were determined by the method of Lowry et al., J. Biol. Chem., 193: 265-275 (1951).
Regarding `CC` [Ethane], the “Rate of Product Formation” value is given as 3.2 μ moles/hr/mg of protein.

A further test concerns purified secondary alcohol dehydrogenase from Pichia sp. NRRL Y-11,328. The test can be described thus: Substrate specificity, electron acceptor and stoichiometry of purified yeast SADH.
Conditions: not given
The format is biochemical.
Regarding cytochrome c, the “electron acceptor / carrier” value was “could not act as electron carrier”.

Staying with this test, now noted: examined spectrophotometrically.
In the case of `CC(O)CO` (centres unmarked) [1,2-propandiol], the “oxidation by the purified enzyme” value is “not oxidized”. As to `CCCCCC(C)O` (centres unmarked) [2-Heptanol], the “oxidation by the purified enzyme” value is on record as “not oxidized”. In the case of `CCCCCCC(C)O` (centres unmarked) [2-octanol], the “oxidation by the purified enzyme” value is reported as “not oxidized”.

For the compound `CCCCO` [butan-1-ol], the “oxidation by the purified enzyme” value is recorded as “not oxidized”. Turning to `CCC(O)CO` (centres unmarked) [butane 1,2-diol], the “oxidation by the purified enzyme” value is listed as “not oxidized”. Consider `CC(O)CCO` (centres unmarked) [butane 1,3-diol], for which the “oxidation by the purified enzyme” value is listed as “not oxidized”. For the compound `CCO` [ethanol], the “oxidation by the purified enzyme” value is “not oxidized”. `CO` [methanol]: the “oxidation by the purified enzyme” value is “not oxidized”. As to `CCCCCO` [pentan-1-ol], the “oxidation by the purified enzyme” value is given as “not oxidized”. `CCCO` [propan-1-ol]: the “oxidation by the purified enzyme” value was “not oxidized”.

For another test, the system named is purified secondary alcohol dehydrogenase (SADH) from Pseudomonas sp. ATCC 21439. Nature of the test: Kinetics and substrate specificity of purified SADH.
Conditions: not given
Format: biochemical.
`O=Cc1ccccc1` [benzaldehyde]: the “oxidation by SADH” value is “not oxidized”. As for `CCC(O)CO` (centres unmarked) [butane 1,2-diol], the “oxidation by SADH” value is given as “not oxidized”. In the case of `C=O` [formaldehyde], the “oxidation by SADH” value is “not oxidized”. The same measure, in the same setting: the result for `CC(C)CO` [isobutanol] reads “not oxidized”; that for `Oc1ccccc1` [phenol], “not oxidized”; that for `O=C(O)CCC(=O)O` [succinic acid], “not oxidized”.

The same test, now with this note: 2-butanol = 100%.
Turning to `CCC=O` [propanal], the “relative percent rate of oxidation” value came to 2%.

(Values after US4347319A, “Microbiological epoxidation process” (priority 1980, dated 1982).)
